Consider 5 molecules from ChEMBL document CHEMBL5329192, “Synthesis, biological activities, and future perspectives of steroidal monocyclic pyridines” (RSC Med Chem, 2023).

SMILES strings stand for the structures.

The nature of data set [1]: Selectivity index, ratio of CC50 for cytotoxicity against human HEp-2 cells to EC50 for antiviral activity against Respiratory syncytial virus infected in human HEp-2 cells. The conditions noted are these: read-out: Ratio CC50/EC50. It is filed as toxicity, cell-based.
Data set [2] in a line: Cytotoxicity against human HEp-2 cells assessed as reduction in cell viability incubated for 48 hrs by MTT assay. In kind it is toxicity, cell-based. For orientation: Tetrazolium dyes change colour on reduction, which living cells bring about.
The test system of data set [3] is Respiratory syncytial virus. The data set can be described thus: Antiviral activity against Respiratory syncytial virus infected in human HEp-2 cells assessed as inhibition of virus-induced cytopathic effect measured after 6 days by CellTiter-Glo assay. In kind it is functional, organism-based. To be noted: HEp-2, 144 h. (In general: Protection from cytopathic effect is a common read-out in antiviral testing.)

Another data set has as its system MGC-803. Put plainly: Cytotoxicity against human MGC-803 cells assessed as reduction in cell growth incubated for 48 hrs by MTT assay. To be noted: MGC-803, 48 h. It is filed as functional, cell-based.
For the next data set, the system named is EC9706. The data set can be described thus: Cytotoxicity against human EC9706 cells assessed as reduction in cell growth incubated for 48 hrs by MTT assay. It is filed as functional, cell-based. The conditions noted are these: EC9706, 48 h.
In the next data set the test system is ECa-109 cell line. Put plainly: Cytotoxicity against human EC109 cells assessed as reduction in cell growth incubated for 48 hrs by MTT assay. It is filed as functional, cell-based. The conditions noted are these: ECa-109, 48 h.

One may read the CC50 as the concentration at which the toxic effect on the cells reaches its halfway point. The EC50 is the concentration giving half of the maximal effect. Consider `CC(=O)O[C@H]1CC[C@@]2(C)C(=CC[C@H]3[C@@H]4CC[C@H](c5cc(-c6ccnc(Br)c6)c(C#N)c(N)n5)[C@@]4(C)CC[C@@H]32)C1`, for which the selectivity ratio in data set [1] worked out at 172. In addition, the CC50 at 48 h in data set [2] was determined as 539 µM. Besides, the EC50 in data set [3] is 3.13 µM.
On to `CC(=O)O[C@H]1CC[C@@]2(C)C(=CC[C@H]3[C@@H]4CC[C@H](c5cc(-c6ccccc6Cl)c(C#N)c(N)n5)[C@@]4(C)CC[C@@H]32)C1`, for which the selectivity ratio in data set [1] was found to be 21.4. The CC50 at 48 h in data set [2] is 303 µM. The EC50 in data set [3] came out at 14.1 µM.
The IC50 is the midpoint of a concentration-inhibition curve. For `CC(=O)O[C@H]1CC[C@@]2(C)C(=CC[C@@H]3[C@@H]2CC[C@]2(C)c4nc(N)c(C#N)cc4C[C@@H]32)C1`, the figures for the IC50 with MGC-803, in the data set with EC9706 and in the data set on ECa-109 cell line were 16.3 µM, 58.4 µM and 20.5 µM, respectively.
Turning to `CC(=O)O[C@H]1CC[C@@]2(C)C(=CC[C@H]3[C@@H]4CC[C@H](c5cc(-c6ccccc6F)c(C#N)c(N)n5)[C@@]4(C)CC[C@@H]32)C1`, the selectivity ratio in data set [1] was 23.2. In addition, in data set [2], the CC50 at 48 h is 288 µM. The EC50 in data set [3] turned out to be 12.4 µM.
As for `NC(=O)c1ncn([C@@H]2O[C@H](CO)[C@@H](O)[C@H]2O)n1` [RIBAVIRIN], the selectivity ratio in data set [1] is 32.5. Also, the CC50 at 48 h in data set [2] turned out to be 653 µM. Besides, the EC50 in data set [3] is 20.1 µM.
